In US20220378691A1, “Cosmetic composition comprising fermented product of Nuruk” (DAEBONG LS, LTD, priority 2021, published 2022):

Test: Antioxidant effect: DPPH free radical scavenging test
Conditions: treatment concentration 0.0005%; positive control
Experimental: The following assay test method was performed by applying the decrease in absorbance at 517 nm wavelength. […] After leaving the prepared sample at room temperature for 15 minutes, absorbance was measured at a wavelength of a 517 nm using a microplate reader. […] In addition, the positive control of this experimental example was prepared by mixing 1 ml of ascorbic acid (10 ppm) solution diluted in methanol and 1 ml of DPPH.

O=C1O[C@H]([C@@H](O)CO)C(O)=C1O [Ascorbic acid, ascorbic acid]
DPPF radical scavenging activity: 91.36 ± 0.13%
